The text below walks through data of patent publication US8618163B2, “Derivatives of cycloalkyl- and cycloalkenyl-1,2-dicarboxylic acid compounds having formyl peptide receptor like-1 (FPRL-1) agonist or antagonist activity” (Allergan, Inc., priority 2010, dated 2013).

Like-named read-outs stand apart in the source and are kept apart here.

The target of test [1] is T1, FPR1 (Homo sapiens, UniProt P21462).
T1 construct: expressed in transfected cells; host or cells: HEK-Gqi5 (HEK cells with chimeric G protein Gqi5)
T1 sequence (P21462 1-350): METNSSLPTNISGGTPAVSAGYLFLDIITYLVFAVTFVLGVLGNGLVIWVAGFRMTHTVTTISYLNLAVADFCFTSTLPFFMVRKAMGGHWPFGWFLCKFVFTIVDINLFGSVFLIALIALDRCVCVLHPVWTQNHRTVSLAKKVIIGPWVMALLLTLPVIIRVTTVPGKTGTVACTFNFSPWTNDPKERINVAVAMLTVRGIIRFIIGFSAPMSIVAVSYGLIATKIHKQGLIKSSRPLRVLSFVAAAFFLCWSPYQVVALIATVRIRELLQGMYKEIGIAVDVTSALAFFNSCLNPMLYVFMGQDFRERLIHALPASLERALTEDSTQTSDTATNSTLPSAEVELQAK
Nature of the test: compound-induced calcium activity on FLIPR Tetra in HEK-Gqi5 cells stable expressing FPR1. The class given is cell-based. As to conditions: class symbol NA, read-out: FPR1 EC50 (NA = Not Active). In a few lines:
(§1)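 FPRL1 tested in CHO-Gal6 cells and FPR1 in HEK-Gqi5 cells, both stably expressing receptor and plated the day before. Compound-induced calcium response measured on FLIPR Tetra at 0.61 to 10,000 nM. EC50 (nM) and efficacy reported.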

Test [2] addresses T2, FPRL1 (Homo sapiens, UniProt P25090).
T2 construct: expressed in transfected cells; host or cells: CHO-Gal6 (CHO cells with G alpha 16)
T2 sequence (P25090 1-351): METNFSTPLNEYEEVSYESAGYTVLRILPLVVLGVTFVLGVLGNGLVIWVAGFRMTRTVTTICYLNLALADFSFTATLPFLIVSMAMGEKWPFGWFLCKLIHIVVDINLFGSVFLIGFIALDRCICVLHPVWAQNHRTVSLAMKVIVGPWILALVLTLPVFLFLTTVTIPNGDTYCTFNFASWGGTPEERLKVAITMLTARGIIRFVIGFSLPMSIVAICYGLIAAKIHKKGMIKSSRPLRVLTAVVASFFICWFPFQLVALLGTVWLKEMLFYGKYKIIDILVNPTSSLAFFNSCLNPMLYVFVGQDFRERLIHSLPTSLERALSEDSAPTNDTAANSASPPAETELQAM
Nature of the test: compound-induced calcium activity on FLIPR Tetra in CHO-Gal6 cells stably expressing FPRL1. The class given is cell-based. The settings on record: for FPRL1 (rel. eff.): relative efficacy. In a few lines:
as §1

[3] abbreviates: calcium, FLIPR Tetra, tested 0.61 to 10,000 nM, read-out: FPRL1 EC50.
Setting [4] is: class symbol NA, read-out: FPRL1 EC50 (NA = Not Active).

Consider `CSc1ccc(NC(=O)[C@H]2[C@@H](C(N)=O)[C@H]3CC[C@@H]2C3(C)C)cc1` (racemic) [Compound 64, (+/−)-(1S,2R,3S,4R)-7,7-Dimethyl-N^2-(4-(methylthio)phenyl)bicyclo[2.2.1]heptane-2,3-dicarboxamide], for which the EC50 is more than 10000 nM in test [1] and 17.2 nM in test [2] (setting [3]). Also, the “FPRL1 (rel. eff.)” value in test [2] (calcium, FLIPR Tetra) came out at 0.9.

For the compound `CCc1ccc(NC(=O)[C@H]2[C@@H](C(N)=O)[C@H]3CC[C@@H]2C3(C)C)cc1` (racemic) [Compound 65, (+/−)-(1S,2R,3S,4R)—N^2-(4-Ethylphenyl)-7,7-dimethyl-bicyclo[2.2.1]heptane-2,3-dicarboxamide], the half-maximal effective concentration (EC50) is more than 10000 nM in test [1] and 35 nM in test [2] (setting [3]). Besides, in test [2] (calcium, FLIPR Tetra), the “FPRL1 (rel. eff.)” value came out at 0.95.

For `CCc1ccc(NC(=O)C2C(C(N)=O)C3C=CC2C32CC2)cc1` (racemic) [Compound 66, (+/−)-(1R,4S,5R,6S)—N^5-(4-Ethylphenyl)spiro[bicyclo[2.2.1]hept[2]ene-7,1′-cyclopropane]-5,6-dicarboxamide], the EC50 in test [1] is more than 10000 nM; in test [2] (setting [3]), 50.8 nM. In addition, the “FPRL1 (rel. eff.)” value in test [2] (calcium, FLIPR Tetra) turned out to be 0.79.

As for `CSc1ccc(NC(=O)[C@H]2[C@@H](C(N)=O)[C@H]3CC[C@@H]2C32CC2)cc1` (racemic) [Compound 67, (+/−)-(1S,2R,3S,4R)—N^2-(4-(Methylthio)phenyl)-spiro[bicyclo[2.2.1]heptane-7,1′-cyclopropane]-2,3-dicarboxamide], the values for the EC50 in test [1] and in test [2] (setting [3]) were more than 10000 nM and 15.7 nM, respectively. For the same compound, the “FPRL1 (rel. eff.)” value in test [2] (calcium, FLIPR Tetra) is on record as 0.91.

`CCc1ccc(NC(=O)[C@H]2[C@@H](C(N)=O)[C@H]3CC[C@@H]2C32CC2)cc1` (racemic) [Compound 68, (+/−)-(1S,2R,3S,4R)—N^2-(4-Ethyl-phenyl)-spiro[bicyclo[2.2.1]heptane-7,1′-cyclopropane]-2,3-dicarboxamide]: the EC50 in test [1] is more than 10000 nM; in test [2] (setting [3]), 38.1 nM. Also, the “FPRL1 (rel. eff.)” value in test [2] (calcium, FLIPR Tetra) was 1.0.

In the case of `NC(=O)C1C(C(=O)Nc2ccc(I)cc2)C2C=CC1C21CC1` (racemic) [Compound 69, (+/−)-(1R,4S,5R,6S)—N^5-(4-Iodophenyl)spiro[bicyclo[2.2.1]hept[2]ene-7,1′-cyclopropane]-5,6-dicarboxamide], the concentration for a half-maximal effect (EC50) was more than 10000 nM in test [1] and 7.7 nM in test [2] (setting [3]). Further, the “FPRL1 (rel. eff.)” value in test [2] (calcium, FLIPR Tetra) was found to be 0.87.

As for `C[S+]([O-])c1ccc(NC(=O)C2C(C(=O)O)C3CCC2C32CC2)cc1` (racemic) [Compound 70, (+/−)-(1R,2S,3R,4S)-3-((4-Methylsulfinyl)phenyl)carbamoyl)spiro[bicyclo[2.2.1]-heptane-7,1′-cyclopropane]-2-carboxylic Acid], the EC50 in test [1] was more than 10000 nM; in test [2] (setting [3]) it was 475 nM. Further, in test [2] (calcium, FLIPR Tetra), the “FPRL1 (rel. eff.)” value stood at 0.95.

Take `O=C(O)C1=C(C(=O)Nc2ccc(Br)cc2)C2C=CC1C21CC1` (racemic) [Compound 72, (+/−)-(1R,4S)-2-((4-Bromophenyl)carbamoyl)spiro[bicyclo[2.2.1]-hepta[2,5]diene-7,1′-cyclopropane]-3-carboxylic Acid]: the concentration giving a half-maximal response (EC50) is more than 10000 nM in test [1] and 617 nM in test [2] (setting [3]). In addition, the “FPRL1 (rel. eff.)” value in test [2] (calcium, FLIPR Tetra) worked out at 0.92.

In the case of `Cc1cc(Br)cc(C)c1NC(=O)[C@@H]1[C@H](C(=O)O)[C@@H]2CC[C@H]1C21CC1` (racemic) [Compound 73, (+/−)-(1R,2S,3R,4S)-2-((4-Bromo-2,6-dimethylphenyl)carbamoyl)spiro[bicyclo[2.2.1]-heptane-7,1′-cyclopropane]-3-carboxylic Acid], the EC50 is more than 10000 nM in test [1] and 2120 nM in test [2] (setting [3]). In test [2] (calcium, FLIPR Tetra), the “FPRL1 (rel. eff.)” value came out at 0.67.

Regarding `NC(=O)c1ccc(NC(=O)C2C(C(=O)O)C3CCC2C32CC2)cc1` (racemic) [Compound 74, (+/−)-(1S,2R,3S,4R)-2-((4-Carbomoylphenyl)carbamoyl)spiro[bicyclo[2.2.1]-heptan-7,1′-cyclopropane]-3-carboxylic Acid], the EC50 in test [1] was more than 10000 nM; in test [2] (setting [3]), 2770 nM. In test [2] (calcium, FLIPR Tetra), the “FPRL1 (rel. eff.)” value is 0.67.

Take `CC(=O)Nc1ccc(NC(=O)[C@H]2[C@@H](C(=O)O)[C@H]3CC[C@@H]2C32CC2)cc1` (racemic) [Compound 75, (+/−)-(1S,2R,3S,4R)-2-((4-Acetamidophenyl)carbamoyl)spiro[bicyclo[2.2.1]-heptan-7,1′-cyclopropane]-3-carboxylic Acid]: the EC50 in test [1] and in test [2] (setting [4]) was more than 10000 nM in each case.

On to `CNC(=O)[C@@H]1[C@H](C(=O)Nc2ccc(Br)cc2)[C@@H]2CC[C@H]1C21CC1` (racemic) [Compound 77, (+/−)-(1S,2R,3S,4R)—N^2-(4-Bromophenyl)-N^3-methylspiro[bicyclo[2.2.1]heptane-7,1′-cyclopropane]-2,3-dicarboxamide], for which the EC50 in test [1] is more than 10000 nM; in test [2] (setting [3]) it was 9.7 nM. Moreover, the “FPRL1 (rel. eff.)” value in test [2] (calcium, FLIPR Tetra) was 0.95.

Take `CCNC(=O)[C@@H]1[C@H](C(=O)Nc2ccc(Br)cc2)[C@@H]2CC[C@H]1C21CC1` (racemic) [Compound 78, (+/−)-(1S,2R,3S,4R)—N^2-(4-Bromophenyl)-N^3-ethylspiro[bicyclo[2.2.1]heptane-7,1′-cyclopropane]-2,3-dicarboxamide]: the results for the EC50 in test [1] and in test [2] (setting [3]) were more than 10000 nM and 12.5 nM, respectively. For the same compound, the “FPRL1 (rel. eff.)” value in test [2] (calcium, FLIPR Tetra) came out at 0.95.

With `CC(C)NC(=O)[C@@H]1[C@H](C(=O)Nc2ccc(Br)cc2)[C@@H]2CC[C@H]1C21CC1` (racemic) [Compound 79, (+/−)-(1S,2R,3S,4R)—N^2-(4-Bromophenyl)-N^3-isopropylspiro[bicyclo[2.2.1]heptane-7,1′-cyclopropane]-2,3-dicarboxamide], the EC50 was more than 10000 nM in test [1] and 6.6 nM in test [2] (setting [3]). In addition, the “FPRL1 (rel. eff.)” value in test [2] (calcium, FLIPR Tetra) was determined as 1.0.

Take `O=C(NCCO)[C@@H]1[C@H](C(=O)Nc2ccc(Br)cc2)[C@@H]2CC[C@H]1C21CC1` (racemic) [Compound 82, (+/−)-(1S,2R,3S,4R)—N^2-(4-Bromophenyl)-N^3-[2-hydroxyethyl]spiro[bicyclo[2.2.1]heptane-7,1′-cyclopropane]-2,3-dicarboxamide]: the 50% effective concentration (EC50) in test [1] is more than 10000 nM; in test [2] (setting [3]), 8.8 nM. Besides, the “FPRL1 (rel. eff.)” value in test [2] (calcium, FLIPR Tetra) is given as 0.86.

`O=C(OCc1ccccc1)[C@@H]1[C@H](C(=O)Nc2ccc(Br)cc2)[C@@H]2CC[C@H]1C21CC1` (racemic) [Compound 85, (+/−)-(1S,2R,3S,4R)-Benzyl 2-((4-bromophenyl)carbamoyl)spiro[bicyclo[2.2.1]heptane-7,1′-cyclopropane]-3-carboxylate]: the values for the EC50 in test [1] and in test [2] (setting [3]) were more than 10000 nM and 2140 nM, respectively. In addition, the “FPRL1 (rel. eff.)” value in test [2] (calcium, FLIPR Tetra) is reported as 0.88.

With `CC(C)OC(=O)[C@@H]1[C@H](C(=O)Nc2ccc(Br)cc2)[C@@H]2CC[C@H]1C21CC1` (racemic) [Compound 86, (+/−)-(1S,2R,3S,4R)-Isopropyl 2-((4-bromophenyl)carbamoyl)spiro[bicyclo[2.2.1]heptane-7,1′-cyclopropane]-3-carboxylate], the results for the concentration for a half-maximal effect (EC50) in test [1] and in test [2] (setting [3]) were more than 10000 nM and 2110 nM, respectively. The “FPRL1 (rel. eff.)” value in test [2] (calcium, FLIPR Tetra) turned out to be 1.0.

In the case of `O=C(O)[C@@H]1[C@H](C(=O)NNc2ccc(Br)cc2)[C@@H]2CC[C@H]1C21CC1` (racemic) [Compound 87, (+/−)-(1S,2R,3S,4R)-2-(2-(4-Bromophenyl)hydrazinecarbonyl)spiro[bicyclo[2.2.1]heptane-7,1′-cyclopropane]-3-carboxylic Acid], the concentration giving a half-maximal response (EC50) in test [1] is more than 10000 nM; in test [2] (setting [3]), 456 nM. For the same compound, the “FPRL1 (rel. eff.)” value in test [2] (calcium, FLIPR Tetra) worked out at 0.89.

As for `CN(C(=O)[C@H]1[C@@H](C(=O)O)[C@H]2CC[C@@H]1C21CC1)c1ccc(Br)cc1` (racemic) [Compound 88, (+/−)-(1S,2R,3S,4R)-2-((4-Bromophenyl)(methyl)carbamoyl)spiro[bicyclo[2.2.1]heptane-7,1′-cyclopropane]-3-carboxylate], the results for the EC50 in test [1] and in test [2] (setting [3]) were more than 10000 nM and 410 nM, respectively. The “FPRL1 (rel. eff.)” value in test [2] (calcium, FLIPR Tetra) turned out to be 0.94.

Turning to `N#C[C@@H]1[C@H](C(=O)Nc2ccc(Br)cc2)[C@@H]2CC[C@H]1C21CC1` (racemic) [Compound 89, (+/−)-(1S,2R,3S,4R)—N-(4-Bromophenyl)-3-cyanospiro[bicyclo[2.2.1]heptane-7,1′-cyclopropane]-2-carboxamide], the EC50 was more than 10000 nM in test [1] and 1090 nM in test [2] (setting [3]). Moreover, in test [2] (calcium, FLIPR Tetra), the “FPRL1 (rel. eff.)” value is given as 0.82.

For the compound `O=C1C2C(C(O)N1c1ccc(Br)cc1)C1CCC2C12CC2` (racemic) [Compound 91, (+/−)-(3aR,4S,7R,7aS)-2-(4-Bromophenyl)-1-hydroxyhexahydro-1H-spiro[4,7-methanoisoindole-8,1′-cyclopropane]-3(2H)-one], the EC50 in test [1] and in test [2] (setting [4]) was more than 10000 nM in each case.
